{"source": "patent US20110280807A1", "about": "“Methods and Models for Stress-Induced Analgesia” (UNIVERSITY OF GEORGIA RESEARCH FOUNDATION, INC., priority 2005, published 2011)", "key": {"[1]": {"test_system": "rats subjected to brief, continuous footshock", "experiment": "Nonopioid stress-induced analgesia after brief continuous footshock, tail-flick test, systemic drug", "type": "in vivo, rat"}, "[2]": {"test_system": "dorsolateral periaqueductal gray", "experiment": "PAG injection studies: microinjection into dorsolateral periaqueductal gray, stress analgesia", "type": "in vivo, rat", "conditions": "for basal nociceptive thresholds immediately prior to the stressor: after microinjection into dorsolateral periaqueductal gray"}, "vanilloid VR1 receptors": {"target": "vanilloid VR1 receptors (Homo sapiens, UniProt Q8NER1)", "sequence (Q8NER1 whole entry)": "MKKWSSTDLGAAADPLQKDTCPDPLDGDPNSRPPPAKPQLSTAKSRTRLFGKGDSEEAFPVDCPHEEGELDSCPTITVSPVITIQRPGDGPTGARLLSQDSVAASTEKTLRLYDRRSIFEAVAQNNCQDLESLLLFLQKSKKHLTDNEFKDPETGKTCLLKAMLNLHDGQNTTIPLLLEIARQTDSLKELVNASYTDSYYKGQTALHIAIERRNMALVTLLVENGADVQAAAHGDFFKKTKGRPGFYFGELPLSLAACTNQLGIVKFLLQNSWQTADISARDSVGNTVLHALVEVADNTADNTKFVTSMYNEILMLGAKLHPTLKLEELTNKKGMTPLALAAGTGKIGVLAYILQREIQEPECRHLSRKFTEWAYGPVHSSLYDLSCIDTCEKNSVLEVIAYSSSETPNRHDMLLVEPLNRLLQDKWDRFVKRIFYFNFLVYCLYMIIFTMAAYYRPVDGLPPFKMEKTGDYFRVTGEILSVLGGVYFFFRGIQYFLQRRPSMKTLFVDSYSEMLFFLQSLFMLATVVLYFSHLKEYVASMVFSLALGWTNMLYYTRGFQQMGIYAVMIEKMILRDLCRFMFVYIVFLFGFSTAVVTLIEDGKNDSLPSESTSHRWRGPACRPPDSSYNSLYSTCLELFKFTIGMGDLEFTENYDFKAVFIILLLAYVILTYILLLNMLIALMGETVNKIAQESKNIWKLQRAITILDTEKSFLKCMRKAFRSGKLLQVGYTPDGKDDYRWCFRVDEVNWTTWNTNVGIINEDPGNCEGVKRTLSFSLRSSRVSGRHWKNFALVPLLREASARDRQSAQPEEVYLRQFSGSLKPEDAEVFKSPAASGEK", "conditions": "cited from earlier work"}, "rats [3]": {"test_system": "rats", "experiment": "Tail-flick latencies in the absence of the stressor / basal nociceptive thresholds", "type": "in vivo, rat"}, "rats [4]": {"test_system": "rats", "experiment": "Tolerance studies: repeated agonist injections, then footshock stress analgesia", "type": "in vivo, rat"}, "rats [5]": {"test_system": "rats", "experiment": "Δ^9-THC sensitization study (antinociception after stress or no stress)", "type": "in vivo, rat", "conditions": "10 mg/kg i.p. 24 h following stress or no stress; tail-flick 28-32 min after drug"}, "rats [6]": {"test_system": "rats", "experiment": "Morphine antinociception in rats treated chronically with WIN55,212-2 or vehicle", "type": "in vivo, rat", "conditions": "morphine 2.5 mg/kg s.c. on day 15"}, "[7]": {"conditions": "5 mg/kg i.p. 20 min prior to footshock"}}, "note": "Entries after “also recorded” stand apart in the source; their conditions may differ."}
{"compound": "Oc1cc2c(cc1O)CN(C(=S)NCCc1ccc(Cl)cc1)CCC2", "note": "[capsazepine]", "values": [{"measurement": "effect on stress analgesia (tail-flick latencies after footshock)", "setting": "[1]; 10 mg/kg i.p. 20 min prior to footshock (capsazepine)", "value": "failed to alter SIA; also recorded: did not alter stress analgesia"}]}
{"compound": "Cc1c(C(=O)NN2CCCCC2)nn(-c2ccc(Cl)cc2Cl)c1-c1ccc(Cl)cc1", "note": "[SR141716A]", "values": [{"measurement": "effect on AA-5-HT potentiation of stress analgesia", "setting": "[1]; 1 mg/kg i.p. ten min prior to AA-5-HT 10 mg/kg i.p.", "value": "blocked"}, {"measurement": "effect on stress analgesia (tail-flick latencies after footshock)", "setting": "[1]; [7]", "value": "blocks SIA; also recorded: markedly attenuated"}, {"measurement": "effect on stress analgesia after site-specific administration", "setting": "[2]; 1 μg into dorsolateral periaqueductal gray, 5 min before footshock", "value": "suppressed; also recorded: blocked nonopioid stress analgesia"}, {"measurement": "basal nociceptive thresholds immediately prior to the stressor", "setting": "[2]", "value": "absence of changes in basal nociceptive thresholds"}, {"measurement": "inhibition of vanilloid VR1 receptors", "setting": "vanilloid VR1 receptors", "value": "inhibits vanilloid VR1 receptors at high concentrations"}, {"measurement": "tail-flick latencies in the absence of the stressor", "setting": "rats [3]; no footshock, same times", "value": "failed to alter tail-flick latencies in the absence of footshock"}]}
{"compound": "Cc1c(C(=O)c2cccc3ccccc23)c2cccc3c2n1[C@H](CN1CCOCC1)CO3", "note": "[WIN55,212-2]", "values": [{"measurement": "stress analgesia after acute cannabinoid", "setting": "rats [4]; 10 mg/kg i.p. on day 14, 24 h prior to footshock, vs vehicle", "value": "stress analgesia was increased"}, {"measurement": "post-injection tail-flick latencies (tolerance to cannabinoid antinociception)", "setting": "rats [4]; 10 mg/kg i.p. x 14 days, days 2, 7 and 14", "value": "higher on day 2 compared to day 7 or 14; also recorded: induced tolerance to cannabinoid antinociception"}, {"measurement": "stress analgesia in cannabinoid-tolerant rats", "setting": "rats [4]; chronic 10 mg/kg i.p. x 14 days, footshock 24 h after last injection, vs vehicle or acute group", "value": "SIA was attenuated; also recorded: Stress analgesia was attenuated"}]}
{"compound": "SR144528", "values": [{"measurement": "effect on stress analgesia (tail-flick latencies after footshock)", "setting": "[1]; [7]", "value": "not naltrexone or SR144528 blocks SIA; also recorded: neither the opioid antagonist naltrexone (14 mg/kg i.p.) nor the CB2 antagonist SR144528 altered stress analgesia"}]}
{"compound": "O=C1CC[C@@]2(O)[C@H]3Cc4ccc(O)c5c4[C@@]2(CCN3CC2CC2)[C@H]1O5", "note": "[naltrexone]", "values": [{"measurement": "effect on stress analgesia (tail-flick latencies after footshock)", "setting": "[1]; 14 mg/kg i.p. 20 min prior to footshock", "value": "not naltrexone or SR144528 blocks SIA; also recorded: neither the opioid antagonist naltrexone (14 mg/kg i.p.) nor the CB2 antagonist SR144528 altered stress analgesia"}]}
{"compound": "CCCCCc1cc(O)c2c(c1)OC(C)(C)[C@@H]1CCC(C)=C[C@@H]21", "note": "[Δ^9-THC, Δ^9-tetrahydrocannabinol]", "values": [{"measurement": "Δ^9-THC-induced antinociception in shocked vs non-shocked rats", "setting": "rats [5]", "value": "greater in rats subjected to footshock; also recorded: greater in rats subjected previously to the stressor"}, {"measurement": "effect on stress analgesia (tail-flick latencies after footshock)", "setting": "[1]; 10 mg/kg i.p. 20 min prior to footshock (Δ^9-THC), vs vehicle", "value": "potentiated SIA relative to vehicle; also recorded: enhanced the magnitude and the duration of nonopioid stress analgesia"}]}
{"compound": "Cc1c(C(=O)NN2CCCCC2)nn(-c2ccc(Cl)cc2Cl)c1-c1ccc(I)cc1", "note": "[AM251]", "values": [{"measurement": "effect on stress analgesia (tail-flick latencies after footshock)", "setting": "[1]; [7]", "value": "suppressed SIA; also recorded: blocked this stress analgesia"}, {"measurement": "basal nociceptive thresholds", "setting": "rats [3]; 5 mg/kg i.p., before the stressor", "value": "absence of changes in basal nociceptive thresholds"}]}
{"compound": "CCCCC/C=C\\C/C=C\\C/C=C\\C/C=C\\CCCC(=O)NCCO", "note": "[anandamide, arachidonylethanolamide]", "values": [{"measurement": "binding to VR1", "setting": "vanilloid VR1 receptors", "value": "binds to VR1 with low affinity"}]}
{"compound": "CN1CC[C@]23c4c5ccc(O)c4O[C@H]2[C@@H](O)C=C[C@H]3[C@H]1C5", "note": "[morphine]", "values": [{"measurement": "post-morphine tail-flick latencies (tolerance to morphine antinociception)", "setting": "rats [4]; 10 mg/kg s.c. x 7 days, days 1 and 7", "value": "higher on day 1 compared to day 7"}, {"measurement": "stress analgesia in morphine-tolerant rats", "setting": "rats [4]; chronic morphine 10 mg/kg s.c. x 7 days vs vehicle, footshock 24 h after last injection", "value": "SIA did not differ; also recorded: No differences in stress analgesia"}, {"measurement": "morphine analgesia in cannabinoid-tolerant group relative to controls", "setting": "rats [6]", "value": "modest enhancement in morphine analgesia"}, {"measurement": "post-morphine tail-flick latencies Mean±SEM", "setting": "rats [6]; rats treated chronically with WIN55,212-2", "value": "6.2 ± 0.25", "unit": "s"}, {"measurement": "post-morphine tail-flick latencies Mean±SEM", "setting": "rats [6]; rats treated chronically with vehicle", "value": "5.3 ± 0.21", "unit": "s"}]}
{"compound": "CCCCC/C=C\\C/C=C\\C/C=C\\C/C=C\\CCCC(=O)NCCc1c[nH]c2ccc(O)cc12", "note": "[AA-5-HT, arachidonoylserotonin]", "values": [{"measurement": "effect on stress analgesia (tail-flick latencies after footshock)", "setting": "[1]; 10 mg/kg i.p., footshock 65 min following administration (FAAH inhibition study)", "value": "Potentiation of SIA; also recorded: increased the magnitude and duration of cannabinoid stress analgesia"}, {"measurement": "effect on stress analgesia after site-specific administration", "setting": "[2]; 10 μg into dorsolateral periaqueductal gray, 35 min before footshock", "value": "enhanced SIA; also recorded: enhanced nonopioid stress analgesia"}, {"measurement": "basal nociceptive thresholds immediately prior to the stressor", "setting": "[2]", "value": "absence of changes in basal nociceptive thresholds"}]}
